pKd: −log10 of the molar value.
target: TAAR1 (Mus musculus, UniProt Q923Y8); assay: TAAR1 radioligand binding, membranes of stably transfected HEK293 cells (mouse); settings: mouse/rat; cell not marked 'rat'; radioligand [3H]-rac-2-(1,2,3,4-tetrahydro-1-naphthyl)-2-imidazoline, 4° C.; read-out: Ki (μM) mouse/rat
How it was run: (§1)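 Competition binding on membranes from HEK293 cells stably expressing the TAAR1 species ortholog, in HEPES-NaOH pH 7.0 with 10 mM MgCl2 and 2 mM CaCl2, 30 min at 4° C with [3H]-rac-2-(1,2,3,4-tetrahydro-1-naphthyl)-2-imidazoline. Competitors 10 pM–30 μM, duplicates; non-specific binding with 10 μM unlabelled ligand; filtration and scintillation counting.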

Compound | Ki [µM]
C[C@]1(c2cc(F)c(F)c(F)c2)COC(N)=N1 [Example 306, (S)-4-Methyl-4-(3,4,5-trifluoro-phenyl)-4,5-dihydro-oxazol-2-ylamine] | 0.0027
Cc1cc([C@@]2(C)COC(N)=N2)c(F)cc1Cl [Example 308, (S)-4-(4-Chloro-2-fluoro-5-methyl-phenyl)-4-methyl-4,5-dihydro-oxazol-2-ylamine] | 0.0009
CC[C@]1(c2ccc(Cl)c(Cl)c2)COC(N)=N1 [Example 328, (S)-4-(3,4-Dichloro-phenyl)-4-ethyl-4,5-dihydro-oxazol-2-ylamine] | 0.0052
NC1=N[C@@H](c2ccc(Br)c(Cl)c2)CO1 [Example 330, (+)-(S)-4-(4-Bromo-3-chloro-phenyl)-4,5-dihydro-oxazol-2-ylamine] | 0.0008
NC1=N[C@@H](CCc2cc(Cl)ccc2Cl)CO1 [Example 333, (S)-4-[2-(2,5-Dichloro-phenyl)-ethyl]-4,5-dihydro-oxazol-2-ylamine] | 0.0021
NC1=N[C@@H](c2ccc(Br)cc2C(F)(F)F)CO1 [Example 338, (+)-(S)-4-(4-Bromo-2-trifluoromethyl-phenyl)-4,5-dihydro-oxazol-2-ylamine] | 0.0031
CCC(C[C@H]1COC(N)=N1)c1cccc(F)c1 (stereo partly drawn) [Example 340, (S)-4-[2-(3-Fluoro-phenyl)-butyl]-4,5-dihydro-oxazol-2-ylamine] | 0.002
NC1=N[C@@H](c2cc(Cl)ccc2C(F)(F)F)CO1 [Example 341, (+)-(S)-4-(5-Chloro-2-trifluoromethyl-phenyl)-4,5-dihydro-oxazol-2-ylamine] | 0.0046
NC1=N[C@@H](CC2(c3ccccc3)CC2)CO1 [Example 342, (S)-4-(1-Phenyl-cyclopropylmethyl)-4,5-dihydro-oxazol-2-ylamine] | 0.0045
NC1=N[C@@H](COc2cccc(Cl)c2)CO1 [Example 343, (S)-4-(3-Chloro-phenoxymethyl)-4,5-dihydro-oxazol-2-ylamine] | 0.0028
Cc1cc(F)ccc1[C@H]1COC(N)=N1 [Example 348, (+)-(S)-4-(4-Fluoro-2-methyl-phenyl)-4,5-dihydro-oxazol-2-ylamine] | 0.0036
NC1=N[C@@H](COCc2ccccc2)CO1 [Example 350, (S)-4-Benzyloxymethyl-4,5-dihydro-oxazol-2-ylamine] | 0.0064
NC1=N[C@@H](COc2ccc(F)cc2F)CO1 [Example 353, (S)-4-(2,4-Difluoro-phenoxymethyl)-4,5-dihydro-oxazol-2-ylamine] | 0.0014
NC1=N[C@@H](COc2ccccc2F)CO1 [Example 354, (S)-4-(2-Fluoro-phenoxymethyl)-4,5-dihydro-oxazol-2-ylamine] | 0.0003
CCC(C[C@H]1COC(N)=N1)c1cccc(Cl)c1F (stereo partly drawn) [Example 355, (S)-4-[2-(3-Chloro-2-fluoro-phenyl)-butyl]-4,5-dihydro-oxazol-2-ylamine] | 0.0043
CCC(C[C@H]1COC(N)=N1)c1ccc(F)c(Cl)c1 (stereo partly drawn) [Example 356, (S)-4-[2-(3-Chloro-4-fluoro-phenyl)-butyl]-4,5-dihydro-oxazol-2-ylamine] | 0.0043
CCC(C[C@H]1COC(N)=N1)c1cc(F)cc(Cl)c1 (stereo partly drawn) [Example 357, (S)-4-[2-(3-Chloro-5-fluoro-phenyl)-butyl]-4,5-dihydro-oxazol-2-ylamine] | 0.0068
CCC(C[C@H]1COC(N)=N1)c1cc(Cl)ccc1F (stereo partly drawn) [Example 358, (S)-4-[2-(5-Chloro-2-fluoro-phenyl)-butyl]-4,5-dihydro-oxazol-2-ylamine] | 0.0084
CCc1cc(Cl)ccc1[C@H]1COC(N)=N1 [Example 364, (+)-(S)-4-(4-Chloro-2-ethyl-phenyl)-4,5-dihydro-oxazol-2-ylamine] | 0.002
NC1=N[C@@H](c2ccc(Br)cc2F)CO1 [Example 367, (+)-(S)-4-(4-Bromo-2-fluoro-phenyl)-4,5-dihydro-oxazol-2-ylamine] | 0.001
NC1=N[C@@H](c2ccc(Cl)cc2C2CC2)CO1 [Example 369, (+)-(S)-4-(4-Chloro-2-cyclopropyl-phenyl)-4,5-dihydro-oxazol-2-ylamine] | 0.0009
NC1=N[C@@H](CSc2ccc(Cl)cc2)CO1 [Example 370, (R)-4-(4-Chloro-phenylsulfanylmethyl)-4,5-dihydro-oxazol-2-ylamine] | 0.0037
Cc1ccc([C@H]2COC(N)=N2)cc1Cl [Example 374, (+)-(S)-4-(3-Chloro-4-methyl-phenyl)-4,5-dihydro-oxazol-2-ylamine] | 0.0006

system: TAAR1; assay: as above; settings: TAAR1 binding assay, species not stated; read-out: calculated Kd value of the radioligand
How it was run: as §1

Compound | pKd
c1ccc2c(c1)CCCC2C1=NCCN1 (racemic) [[^3H]-rac-2-(1,2,3,4-tetrahydro-1-naphthyl)-2-imidazoline, reference compound] | 7.22

target: TAAR1 (Rattus norvegicus, UniProt Q923Y9); assay: TAAR1 radioligand binding, membranes of stably transfected HEK293 cells (rat); settings: cell marked 'rat'; radioligand [3H]-rac-2-(1,2,3,4-tetrahydro-1-naphthyl)-2-imidazoline, 4° C.; read-out: Ki (μM) mouse/rat
Procedure: For the construction of expression plasmids the coding sequences of human, rat and mouse TAAR 1 were amplified from genomic DNA essentially as described by Lindemann et al.. The Expand High Fidelity PCR System (Roche Diagnostics) was used with 1.5 mM Mg^2+ and purified PCR products were cloned into pCR2.1-TOPO cloning vector (Invitrogen) following the instructions of the manufacturer. PCR products were subcloned into the pIRESneo2 vector (BD Clontech, Palo Alto, Calif.), and expression vectors were sequence verified before introduction in cell lines.
HEK293 cells (ATCC #CRL-1573) were cultured essentially as described Lindemann et al. (2005). For the generation of stably transfected cell lines HEK293 cells were transfected with the pIRESneo2 expression plasmids containing the TAAR coding sequences (described above) with Lipofectamine 2000 (Invitrogen) according to the instructions of the manufacturer, and 24 hrs post transfection the culture medium was supplemented with 1 mg/ml G418 (Sigma, Buchs, Switzerland). After a culture period of about 10 d clones were isolated, expanded and tested for responsiveness to trace amines (all compounds purchased from Sigma) with the cAMP Biotrak Enzyme immunoassay (EIA) System (Amersham) following the non-acetylation EIA procedure provided by the manufacturer.
Cells at confluence were rinsed with ice-cold phosphate buffered saline without Ca^2+ and Mg^2+ containing 10 mM EDTA and pelleted by centrifugation at 1000 rpm for 5 min at 4° C. The pellet was then washed twice with ice-cold phosphate buffered saline and cell pellet was frozen immediately by immersion in liquid nitrogen and stored until use at −80° C. Cell pellet was then suspended in 20 ml HEPES-NaOH (20 mM), pH 7.4 containing 10 mM EDTA, and homogenized with a Polytron (PT 3000, Kinematica) at 10,000 rpm for 10 s. The homogenate was centrifuged at 48,000×g for 30 min at 4° C. and the pellet resuspended in 20 ml HEPES-NaOH (20 mM), pH 7.4 containing 0.1 mM EDTA (buffer A), and homogenized with a Polytron at 10,000 rpm for 10 s. The homogenate was then centrifuged at 48,000×g for 30 min at 4° C. and the pellet resuspended in 20 ml buffer A, and homogenized with a Polytron at 10,000 rpm for 10 s. Protein concentration was determined by the method of Pierce (Rockford, Ill.). The homogenate was then centrifuged at 48,000×g for 10 min at 4° C., resuspended in HEPES-NaOH (20 mM), pH 7.0 including MgCl2 (10 mM) and […] homogenized with a Polytron at 10,000 rpm for 10 s.
Binding assay was performed at 4° C. in a final volume of 1 ml, and with an incubation time of 30 min. […] Non-specific binding was defined as the amount of [^3H]-rac-2-(1,2,3,4-tetrahydro-1-naphthyl)-2-imidazoline bound in the presence of the appropriate unlabelled ligand (10 μM). Competing ligands were tested in a wide range of concentrations (10 pM-30 μM). […] Each experiment was performed in duplicate. All incubations were terminated by rapid filtration through UniFilter-96 plates (Packard Instrument Company) and glass filter GF/C, pre-soaked for at least 2 h in polyethylenimine 0.3%, and using a Filtermate 96 Cell Harvester (Packard Instrument Company). The tubes and filters were then washed 3 times with 1 ml aliquots of cold buffer B. Filters were not dried and soaked in Ultima gold (45 μl/well, Packard Instrument Company) and bound radioactivity was counted by a TopCount Microplate Scintillation Counter (Packard Instrument Company).

Compound | Ki [µM]
CC1(c2cccc(Cl)c2F)COC(N)=N1 (racemic) [Example 311, (RS)-4-(3-Chloro-2-fluoro-phenyl)-4-methyl-4,5-dihydro-oxazol-2-ylamine] | 0.0042
CC1(c2ccc(F)cc2Cl)COC(N)=N1 (racemic) [Example 318, (RS)-4-(2-Chloro-4-fluoro-phenyl)-4-methyl-4,5-dihydro-oxazol-2-ylamine] | 0.002
Cc1cc([C@@]2(C)COC(N)=N2)ccc1Cl [Example 281, (S)-4-(4-Chloro-3-methyl-phenyl)-4-methyl-4,5-dihydro-oxazol-2-ylamine] | 0.0019
NC1=N[C@@H](COc2ccc(Cl)c(Cl)c2)CO1 [Example 284, (S)-4-(3,4-Dichloro-phenoxymethyl)-4,5-dihydro-oxazol-2-ylamine] | 0.0028
NC1=N[C@@H](COc2cc(Cl)cc(Cl)c2)CO1 [Example 285, (S)-4-(3,5-Dichloro-phenoxymethyl)-4,5-dihydro-oxazol-2-ylamine] | 0.0045
CCC(C[C@H]1COC(N)=N1)c1cccc(Cl)c1 (stereo partly drawn) [Example 287, (S)-4-[2-(3-Chloro-phenyl)-butyl]-4,5-dihydro-oxazol-2-ylamine] | 0.0027
NC1=N[C@@H](COc2ccc(Br)cc2)CO1 [Example 310, (S)-4-(4-Bromo-phenoxymethyl)-4,5-dihydro-oxazol-2-ylamine] | 0.009
CC[C@]1(c2ccc(Cl)cc2)COC(N)=N1 [Example 313, (S)-4-(4-Chloro-phenyl)-4-ethyl-4,5-dihydro-oxazol-2-ylamine] | 0.005
Cc1ccc(Cl)cc1[C@H]1COC(N)=N1 [Example 314, (+)-(S)-4-(5-Chloro-2-methyl-phenyl)-4,5-dihydro-oxazol-2-ylamine] | 0.003
NC1=N[C@H](c2ccc(Br)cc2Cl)CO1 [Example 315, (−)-(R)-4-(4-Bromo-2-chloro-phenyl)-4,5-dihydro-oxazol-2-ylamine] | 0.0016
NC1=N[C@@H](c2ccc(Br)cc2Cl)CO1 [Example 316, (+)-(S)-4-(4-Bromo-2-chloro-phenyl)-4,5-dihydro-oxazol-2-ylamine] | 0.0003
NC1=N[C@@H](c2ccc(Br)c(F)c2)CO1 [Example 321, (+)-(S)-4-(4-Bromo-3-fluoro-phenyl)-4,5-dihydro-oxazol-2-ylamine] | 0.0014
NC1=N[C@@H](CCc2ccccc2Br)CO1 [Example 322, (S)-4-[2-(2-Bromo-phenyl)-ethyl]-4,5-dihydro-oxazol-2-ylamine] | 0.002

Reference: US8604061B2, “2-aminooxazolines as TAAR1 ligands” (Hoffmann-La Roche Inc., priority 2007, dated 2013)
